For assay [1], the target named is T1, A3 receptors (Rattus norvegicus, UniProt P28647).
T1 sequence (P28647 1-320): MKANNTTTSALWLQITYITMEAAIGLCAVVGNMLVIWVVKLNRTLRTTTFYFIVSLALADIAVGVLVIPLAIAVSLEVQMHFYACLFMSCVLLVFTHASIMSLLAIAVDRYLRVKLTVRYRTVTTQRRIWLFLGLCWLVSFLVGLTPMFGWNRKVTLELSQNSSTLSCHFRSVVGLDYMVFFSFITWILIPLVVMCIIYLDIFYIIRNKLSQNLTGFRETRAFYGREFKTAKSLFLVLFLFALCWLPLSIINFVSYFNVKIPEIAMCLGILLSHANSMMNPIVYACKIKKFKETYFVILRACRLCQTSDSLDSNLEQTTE
Nature of the assay: A3 receptor binding selectivity. To be noted: in words.

Assay [2] concerns the target T1, A3 receptors. To be noted: in words; Zhou et al.; cited from earlier work.
For another assay, the system named is A3 receptor. To be noted: coadministered with a xanthine antagonist that does not act at A3 receptors; cited from earlier work.
For another assay, the target named is T2, rat brain A1 receptor (Rattus norvegicus, UniProt P25099).
T2 construct: Rat cerebral cortical and striatal membranes were prepared; from tissue; host or cells: rat brain membranes (cerebral cortical)
T2 sequence (P25099 1-326): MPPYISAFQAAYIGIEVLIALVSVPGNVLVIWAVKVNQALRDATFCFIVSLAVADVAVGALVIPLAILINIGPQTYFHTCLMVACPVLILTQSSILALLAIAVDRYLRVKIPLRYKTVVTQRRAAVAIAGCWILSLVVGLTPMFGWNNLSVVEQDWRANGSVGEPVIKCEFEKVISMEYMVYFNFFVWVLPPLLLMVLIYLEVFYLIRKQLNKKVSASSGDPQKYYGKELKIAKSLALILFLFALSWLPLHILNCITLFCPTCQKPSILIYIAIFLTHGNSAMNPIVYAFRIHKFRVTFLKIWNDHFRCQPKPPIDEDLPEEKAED
Nature of the assay: Displacement of [^3 H]PIA binding at A1 receptors. To be noted: [^3 H]PIA, rat brain membranes; Ki ± S.E.M., n = 3-6.

The next assay deals with T3, rat brain A2a receptor (Rattus norvegicus, UniProt P30543).
T3 construct: A2 receptors from rat striatal membranes; from tissue; host or cells: rat striatal membranes
T3 sequence (P30543 whole entry): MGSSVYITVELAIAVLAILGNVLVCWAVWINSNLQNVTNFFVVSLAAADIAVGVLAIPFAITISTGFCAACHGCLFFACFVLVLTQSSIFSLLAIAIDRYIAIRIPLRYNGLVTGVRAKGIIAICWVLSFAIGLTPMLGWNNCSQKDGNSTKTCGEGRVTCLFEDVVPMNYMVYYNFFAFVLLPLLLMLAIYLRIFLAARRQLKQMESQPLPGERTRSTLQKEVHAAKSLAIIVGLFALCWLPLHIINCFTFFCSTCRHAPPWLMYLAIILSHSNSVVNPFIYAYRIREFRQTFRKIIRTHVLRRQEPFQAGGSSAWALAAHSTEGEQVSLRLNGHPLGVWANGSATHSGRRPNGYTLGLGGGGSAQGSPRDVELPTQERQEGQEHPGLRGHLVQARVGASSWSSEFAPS
Nature of the assay: Displacement of [^3 H]CGS 21680 binding at A2a receptors. As to conditions: [^3 H]CGS 21680, rat brain membranes; Ki ± S.E.M., n = 3-6. As to the method: Rat cerebral cortical and striatal membranes were prepared (Jacobson et al., J. Med. Chem., 35, 4143-4149 (1992)) and treated with ADA for 30 min at 37° C. prior to storage at -70° C.
The stock solutions were diluted with DMSO to a concentration of ≤0.1 mM prior to addition to the aqueous medium. The final concentration of DMSO in the assay medium was generally 2%.
At least six different concentrations spanning three orders of magnitude, adjusted appropriately for the IC50 of each compound, were used. […]. Pharmacol., 22, 3099-3108 (1973)).

In assay [3] the target is T4, rat A3 adenosine receptors (Rattus norvegicus, UniProt P28647).
T4 construct: expressed in transfected cells; host or cells: CHO cells, stably transfected
T4 sequence (P28647 1-320): T1 sequence (P28647 1-320)
Nature of the assay: Inhibition of adenylate cyclase in CHO cells stably transfected with rat A3 adenosine receptors. The class given is cell-based.

Assay [4] deals with ischemic model in gerbils. To be noted: cited from earlier work.
The subject of assay [5] is NMDA-induced seizures in mice. As to conditions: cited from earlier work.

`OC[C@H]1O[C@@H](n2cnc3c(NCc4cccc(I)c4)nc(Cl)nc32)[C@H](O)[C@@H]1O` [2-chloro-N^6-(3-iodobenzyl)-adenosine]: on A3 receptors [1], the “tolerance of 2-substitution at A3 receptors” value is reported as “well-tolerated”.

As to `CCNC(=O)[C@H]1O[C@@H](n2cnc3c(N)nc(NCCc4ccc(CCC(=O)NCCN)cc4)nc32)[C@H](O)[C@@H]1O` [APEC], the “tolerance of 2-substitution at A3 receptors” value at A3 receptors [1] is given as “well-tolerated”.

As to `Nc1ccc(CCNc2ncnc3c2ncn3[C@@H]2O[C@H](CO)[C@@H](O)[C@H]2O)cc1` [APNEA, N^6-2-(4-aminophenyl)ethyladenosine], the “activity at the A3 receptor” value on A3 receptors [2] was “agonists for the A3 receptor”. For the same compound, the “cardioprotective potential of A3 receptor activation” value with A3 receptor is reported as “has been demonstrated”.

With `CNC(=O)[C@H]1O[C@@H](n2cnc3c(NCc4cccc(I)c4)nc(Cl)nc32)[C@@H]2OC(=S)O[C@@H]21` [Compound 46, 2-Chloro-9-(2',3'-O-Thiocarbonyl-β-D-5-Methyl-Ribofuronamido)-N^6-(3-Iodobenzyl)adenine], the Ki (as a rule, a dissociation constant, usually derived from enzyme kinetics or from competition with a known ligand) at rat brain A1 receptor was 179 ± 24 nM; at rat brain A2a receptor it was 871 ± 219 nM. In addition, in assay [3] (CHO, 100 μM, 1 μM forskolin, average ± S.E.M. for 2-3 determinations or a single value, read-out: % Inhib. (adenylate cyclase)), the inhibition at 100 µM turned out to be 54.5 ± 8.1%. In addition, the “Ratio Conc./Ki (A3)” value in assay [3] (test concentration divided by Ki (A3)) came to 8200.

On to `CNC(=O)[C@H]1O[C@@H](n2cnc3c(NCc4cccc(I)c4)ncnc32)[C@H](O)[C@@H]1O` [IB-MECA, N^6-(3-iodobenzyl)adenosine-5'-N-methyluronamide], for which the “cerebroprotective effects, ischemic model” value in assay [4] is listed as “cerebroprotective effects”. The “cerebroprotective effects, NMDA-induced seizures” value in assay [5] is “cerebroprotective effects”.

Consider `CCNC(=O)[C@H]1O[C@@H](n2cnc3c(NCc4ccccc4)ncnc32)[C@H](O)[C@@H]1O` [N^6-benzyladenosine-5'-N-ethyluronamide, reference compound], for which the “agonist efficacy in inhibition of adenylate cyclase” value in assay [3] (in words, via rat A3 receptors) is reported as “full agonists”. In addition, the “selectivity for rat A3 receptors vs. either A1 or A2a receptors in binding assays” value on A3 receptors [1] is “only one order of magnitude selective”.

The values are drawn from US5688774A (priority 1995, dated 1997).
